Common to all, as to format: binding
Experiment [1] deals with T1, PCSK9 (Homo sapiens, UniProt Q8NBP7).
T1 construct: biotin (biotinylated); purchased
The experiment can be described thus: PCSK9 Alexa FRET Standard TR-FRET assay. The protocol: A solution containing 1 nM biotinylated PCSK9+2.5 nM Lance Streptavidin Europium (Strep-Eu) is made in 50 mM HEPES pH 7.4, 0.15 M NaCl, 5 mM CaCl2, 0.01% BSA, and 0.01% Surfactant P20. A separate solution containing 40 nM of the AlexaFluor tagged cyclic peptide is made in the same buffer system. An Echo is used to transfer 0.750 ul of compound to an assay plate followed by the addition of 15 ul of PCSK9+Stept-Eu and 15 ul of AF peptide. The final assay volume is 30.750 ul containing 0.5 nM PCSK9, 1.25 nM Strep-Eu, and 20 nM AF cyclic peptide. The reaction is incubated at room temperature for at least two hours prior to fluorescence measurements using an Envision Multilabel Reader. IC50 values are determined by fitting data to a sigmoidal dose-response curve using nonlinear regression. Ki is then calculated from the Ic50 and the KD of AF cyclic peptide. Counts (B-counts) of the europium-labeled PCSK9 are followed to observe if compounds are adversely PCSK9. A fall off of the B-counts likely indicates a false positive of inhibition. Data from this procedure is reported as “A=‘numerical value’ (nanomolar)”
Background: Time-resolved FRET reads energy transfer from a long-lived donor to a nearby acceptor.

In experiment [2] the target is T1, PCSK9. The experiment can be described thus: PCSK9 Alexa FRET Ultra TR-FRET assay. Particulars: Ki Ultra, calculated from IC50 and KD of AF cyclic peptide; 0.5 nM PCSK9, 960 nM AF cyclic peptide; read-out: Alexa FRET Ultra TR-FRET. As to the method: A separate solution containing 1920 nM of the AlexaFluor tagged cyclic peptide is made in the same buffer system. […] The reaction is incubated at room temperature for at least two hours prior to fluorescence measurements using an Envision Multilabel Reader. IC50 values are determined by fitting data to a sigmoidal dose-response curve using nonlinear regression. Ki is then calculated from the Ic50 and the KD of AF cyclic peptide. Counts (B-counts) of the europium-labeled PCSK9 are followed to observe if compounds are adversely affecting PCSK9. A fall off of the B-counts is likely indicates a false positive of inhibition. Data from this procedure is reported as “Ki Ultra=‘numerical value’ (data reported is nanomolar)”

Experiment [3] addresses T1, PCSK9. The experiment can be described thus: PCSK9 Alexa FRET Plus TR-FRET assay. The settings on record: Ki calculated from IC50 and KD of AF cyclic peptide Reagent B; 0.5 nM PCSK9, 960 nM AF cyclic peptide; read-out: Alexa FRET Plus TR-FRET. As to the method: A separate solution containing 1920 nM of the AlexaFluor tagged cyclic peptide is made in the same buffer system. […] The reaction is incubated at room temperature for at least two hours prior to fluorescence measurements using an Envision Multilabel Reader. IC50 values are determined by fitting data to a sigmoidal dose-response curve using nonlinear regression. Ki is then calculated from the Ic50 and the KD of AF cyclic peptide. Counts (B-counts) of the europium-labeled PCSK9 are followed to observe if compounds are adversely affecting PCSK9. A fall off of the B-counts is likely indicates a false positive of inhibition. Data from this procedure is reported as “P=‘numerical value’ (nanomolar)”

The mark [4] stands for this setting: Ki calculated from IC50 and KD of AF cyclic peptide Reagent A, 0.5 nM PCSK9, 20 nM AF cyclic peptide, read-out: Alexa FRET Stdt TR-FRET.

Results on 13 compounds are retold here after patent publication US12178842B2, “PCSK9 antagonist compounds” (MERCK SHARP & DOHME LLC, priority 2019, dated 2024).

Bounds are passed on as bounds.

T1 sequence (Q8NBP7 153-692): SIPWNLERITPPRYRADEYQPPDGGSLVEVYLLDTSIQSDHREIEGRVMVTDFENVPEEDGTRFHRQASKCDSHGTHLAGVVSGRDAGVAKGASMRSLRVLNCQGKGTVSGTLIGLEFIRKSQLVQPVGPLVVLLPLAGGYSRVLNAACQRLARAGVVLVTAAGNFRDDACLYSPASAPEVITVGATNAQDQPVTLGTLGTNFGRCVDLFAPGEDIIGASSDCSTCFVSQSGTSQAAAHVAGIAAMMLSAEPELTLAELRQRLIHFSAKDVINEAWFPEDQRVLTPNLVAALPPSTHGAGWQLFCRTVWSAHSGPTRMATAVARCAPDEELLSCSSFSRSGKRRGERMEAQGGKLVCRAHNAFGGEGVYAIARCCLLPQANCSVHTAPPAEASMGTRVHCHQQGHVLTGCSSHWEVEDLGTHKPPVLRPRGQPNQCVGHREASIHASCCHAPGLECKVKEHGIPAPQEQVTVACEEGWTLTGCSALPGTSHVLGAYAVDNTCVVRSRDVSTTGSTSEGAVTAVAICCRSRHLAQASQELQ

Consider `COc1ccc(C[C@@H]2NC(=O)[C@H]([C@@H](C)O)NC(=O)[C@@H]3[C@@H]4CCN3C(=O)[C@@H]3Cc5cn(c6ccc(F)cc56)CCCCCCN(Cc5ccc(cc5)CCNC(=O)[C@]5(C)CCCN5C2=O)C(=O)CCC(=O)N[C@@H](C)C(=O)N[C@H](CNC(=O)COCCOCC[N+](C)(C)CCOCCNC(=O)COCCOCCNC(=O)COCCOCCNC(=O)CC[C@H](NC(=O)CCCCCCCCCCCCCCCCC(=O)O)C(=O)O)C(=O)N[C@@H](Cc2cccc(c2)CNC(=O)CO4)C(=O)N3)cc1` [Ex-31], for which the Ki on PCSK9 [1] (setting [4]) was less than 1260 pM; at PCSK9 [2], 6 pM; on PCSK9 [3] it was less than 6 pM.
The matching figures for `COc1ccc(C[C@@H]2NC(=O)[C@H]([C@@H](C)O)NC(=O)[C@@H]3[C@@H]4CCN3C(=O)[C@@H]3Cc5cn(c6ccc(F)cc56)CCCCCCN(Cc5ccc(cc5)CCNC(=O)[C@]5(C)CCCN5C2=O)C(=O)CCC(=O)N[C@@H](C)C(=O)N[C@H](CNC(=O)CCOCCOCC[N+](C)(C)CCNC(=O)COCCOCCNC(=O)COCCOCCNC(=O)CC[C@H](NC(=O)CC[C@H](NC(=O)CCCCCCCCCCCCCCC(=O)O)C(=O)O)C(=O)O)C(=O)N[C@@H](Cc2cccc(c2)CNC(=O)CO4)C(=O)N3)cc1` [Ex-34]: less than 1260 pM, 3 pM and less than 6 pM.
The matching figures for `COc1ccc(C[C@@H]2NC(=O)[C@H]([C@@H](C)O)NC(=O)[C@@H]3[C@@H]4CCN3C(=O)[C@@H]3Cc5cn(c6ccc(F)cc56)CCCCCCN(Cc5ccc(cc5)CCNC(=O)[C@]5(C)CCCN5C2=O)C(=O)CCC(=O)N[C@@H](C)C(=O)N[C@H](CNC(=O)COCC[N+](C)(C)CCOCCNC(=O)COCCOCCNC(=O)COCCOCCNC(=O)CC[C@H](NC(=O)CCCCCCCCCCCCCCCCC(=O)O)C(=O)O)C(=O)N[C@@H](Cc2cccc(c2)CNC(=O)CO4)C(=O)N3)cc1` [Ex-35]: less than 1260 pM, 9 pM and 7 pM.
The matching figures for `CCCCCCCCCCCCCCCC(=O)NCC[N+](C)(C)CCOCCOCCC(=O)NC[C@H]1NC(=O)[C@H](C)NC(=O)CCC(=O)N2CCCCCCn3cc(c4cc(F)ccc43)C[C@@H]3NC(=O)[C@H](Cc4cccc(c4)CNC(=O)CO[C@H]4CCN(C3=O)[C@@H]4C(=O)N[C@@H]([C@@H](C)O)C(=O)N[C@@H](Cc3ccc(OC)cc3)C(=O)N3CCC[C@@]3(C)C(=O)NCCc3ccc(cc3)C2)NC1=O` [Ex-36]: less than 1260 pM, 16 pM and 44 pM.
Regarding `CCCCCCCCCCCCCCCC(=O)NCC[N+](C)(C)CCOCCOCCC(=O)NCCOCCOCC(=O)NCCOCCOCC(=O)NC[C@H]1NC(=O)[C@H](C)NC(=O)CCC(=O)N2CCCCCCn3cc(c4cc(F)ccc43)C[C@@H]3NC(=O)[C@H](Cc4cccc(c4)CNC(=O)CO[C@H]4CCN(C3=O)[C@@H]4C(=O)N[C@@H]([C@@H](C)O)C(=O)N[C@@H](Cc3ccc(OC)cc3)C(=O)N3CCC[C@@]3(C)C(=O)NCCc3ccc(cc3)C2)NC1=O` [Ex-38], the Ki at PCSK9 [1] (setting [4]) was less than 1260 pM; at PCSK9 [2], 12 pM; at PCSK9 [3], 13 pM.
As to `COc1ccc(C[C@@H]2NC(=O)[C@H]([C@@H](C)O)NC(=O)[C@@H]3[C@@H]4CCN3C(=O)[C@@H]3Cc5cn(c6ccc(F)cc56)CCCCCCN(Cc5ccc(cc5)CCNC(=O)[C@]5(C)CCCN5C2=O)C(=O)CCC(=O)N[C@@H](C)C(=O)N[C@H](CNC(=O)COCCOCCNC(=O)COCCOCCNC(=O)CCOCCOCC[N+](C)(C)CCNC(=O)CCCCCCCCCCCCCCC(=O)O)C(=O)N[C@@H](Cc2cccc(c2)CNC(=O)CO4)C(=O)N3)cc1` [Ex-39], the Ki at PCSK9 [1] (setting [4]) was less than 1260 pM; at PCSK9 [2] it was 3 pM; on PCSK9 [3], less than 6 pM.
The matching figures for `COc1ccc(C[C@@H]2NC(=O)[C@H]([C@@H](C)O)NC(=O)[C@@H]3[C@@H]4CCN3C(=O)[C@@H]3Cc5cn(c6ccc(F)cc56)CCCCCCN(Cc5ccc(cc5)CCNC(=O)[C@]5(C)CCCN5C2=O)C(=O)CCC(=O)N[C@@H](C)C(=O)N[C@H](CNC(=O)COCCOCC[N+](C)(C)CCNC(=O)COCCOCCNC(=O)COCCOCCNC(=O)CC[C@H](NC(=O)CCCCCCCCCCCCCCCCC(=O)O)C(=O)O)C(=O)N[C@@H](Cc2cccc(c2)CNC(=O)CO4)C(=O)N3)cc1` [Ex-40]: less than 1260 pM, 4 pM and 8 pM.
The matching figures for `COc1ccc(C[C@@H]2NC(=O)[C@H]([C@@H](C)O)NC(=O)[C@@H]3[C@@H]4CCN3C(=O)[C@@H]3Cc5cn(c6ccc(F)cc56)CCCCCCN(Cc5ccc(cc5)CCNC(=O)[C@]5(C)CCCN5C2=O)C(=O)CCC(=O)N[C@@H](C)C(=O)N[C@H](CNC(=O)COCCOCCNC(=O)COCCOCCNC(=O)CC[C@H](NC(=O)CCCCCCCCCCCCCCC(=O)O)C(=O)O)C(=O)N[C@@H](Cc2cccc(c2)CNC(=O)CO4)C(=O)N3)cc1` [Ex-41]: less than 1260 pM, 5 pM and less than 6 pM.
Take `COc1ccc(C[C@@H]2NC(=O)[C@H]([C@@H](C)O)NC(=O)[C@@H]3[C@@H]4CCN3C(=O)[C@@H]3Cc5cn(c6ccc(F)cc56)CCCCCCN(Cc5ccc(cc5)CCNC(=O)[C@]5(C)CCCN5C2=O)C(=O)CCC(=O)N[C@@H](C)C(=O)N[C@H](CNC(=O)COCCOCCNC(=O)COCCOCCNC(=O)CC[C@H](NC(=O)CC[C@H](NC(=O)CCCCCCCCCCCCCCC(=O)O)C(=O)O)C(=O)O)C(=O)N[C@@H](Cc2cccc(c2)CNC(=O)CO4)C(=O)N3)cc1` [Ex-42]: the Ki is less than 1260 pM on PCSK9 [1] (setting [4]), 10 pM on PCSK9 [2] and less than 6 pM at PCSK9 [3].
As for `COc1ccc(C[C@@H]2NC(=O)[C@H]([C@@H](C)O)NC(=O)[C@@H]3[C@@H]4CCN3C(=O)[C@@H]3Cc5cn(c6ccc(F)cc56)C/C=C/CCCN(Cc5ccc(cc5)CCNC(=O)[C@]5(C)CCCN5C2=O)C(=O)CCC(=O)N[C@@H](C)C(=O)N[C@H](CNC(=O)CCOCCOCC[N+](C)(C)CCNC(=O)COCCOCCNC(=O)COCCOCCNC(=O)CC[C@H](NC(=O)CC[C@H](NC(=O)CCCCCCCCCCCCCCCCC(=O)O)C(=O)O)C(=O)O)C(=O)N[C@@H](Cc2cccc(c2)CNC(=O)CO4)C(=O)N3)cc1` [Ex-44], the Ki was less than 1260 pM at PCSK9 [1] (setting [4]), 3 pM at PCSK9 [2] and less than 6 pM at PCSK9 [3].
Take `COc1ccc(C[C@@H]2NC(=O)[C@H]([C@@H](C)O)NC(=O)[C@@H]3[C@@H]4CCN3C(=O)[C@@H]3Cc5cn(c6ccc(F)cc56)CCCCCCN(Cc5ccc(cc5)CCNC(=O)[C@]5(C)CCCN5C2=O)C(=O)CCC(=O)N[C@@H](C)C(=O)N[C@H](CNC(=O)COCCOCC[N+](C)(C)CCOCCNC(=O)COCCOCCNC(=O)COCCOCCNC(=O)CC[C@H](NC(=O)CC[C@H](NC(=O)CCCCCCCCCCCCCCC(=O)O)C(=O)O)C(=O)O)C(=O)N[C@@H](Cc2cccc(c2)CNC(=O)CO4)C(=O)N3)cc1` [Ex-47]: the Ki is less than 1260 pM on PCSK9 [1] (setting [4]), 3 pM at PCSK9 [2] and less than 6 pM at PCSK9 [3].
The matching figures for `COc1ccc(C[C@@H]2NC(=O)[C@H]([C@@H](C)O)NC(=O)[C@@H]3[C@@H]4CCN3C(=O)[C@@H]3Cc5cn(c6ccc(F)cc56)CCCCCCN(Cc5ccc(cc5)CCNC(=O)[C@]5(C)CCCN5C2=O)C(=O)CCC(=O)N[C@@H](C)C(=O)N[C@H](CNC(=O)CCOCCOCC[N+](C)(C)CCNC(=O)COCCOCCNC(=O)CC[C@H](NC(=O)CC[C@H](NC(=O)CC[C@H](NC(=O)CCCCCCCCCCCCCCCCC(=O)O)C(=O)O)C(=O)O)C(=O)O)C(=O)N[C@@H](Cc2cccc(c2)CNC(=O)CO4)C(=O)N3)cc1` [Ex-48]: less than 1260 pM, 9 pM and less than 6 pM.
For the compound `COc1ccc(C[C@@H]2NC(=O)[C@H]([C@@H](C)O)NC(=O)[C@@H]3[C@@H]4CCN3C(=O)[C@@H]3Cc5cn(c6ccc(F)cc56)CCCCCCN(Cc5ccc(cc5)CCNC(=O)[C@]5(C)CCCN5C2=O)C(=O)CCC(=O)N[C@@H](C)C(=O)N[C@H](CNC(=O)CCOCCOCC[N+](C)(C)CCNC(=O)COCCOCCNC(=O)COCCOCCNC(=O)CC[C@@H](NC(=O)CC[C@@H](NC(=O)CCCCCCCCCCCCCCCCC(=O)O)C(=O)O)C(=O)O)C(=O)N[C@@H](Cc2cccc(c2)CNC(=O)CO4)C(=O)N3)cc1` [Ex-49], the Ki is less than 1260 pM on PCSK9 [1], 3 pM on PCSK9 [2] and less than 6 pM on PCSK9 [3].
